Reference: patent US20250270507A1, “METHODS FOR PRODUCING CARTILAGE AND BONES” (Murdoch Children's Research Institute, priority 2021, published 2025)

Key:
Type in all cases: cell-based, human
[1] = system: MCRIi018-B hypertrophic organoids; assay: Hypertrophic chondrocyte to osteoblast transdifferentiation in vitro
Protocol: Hypertrophic chondrocytes can transdifferentiate into osteoblasts and osteocytes in vivo (Yang et al., 2014; Zhou et al., 2014). To recapitulate this later stage of endochondral bone formation in vitro, hypertrophic chondrocyte pellets in orbital culture were rinsed in PBS then cultured in DMEM, high glucose, GlutaMAX Supplement, pyruvate (ThermoFisher), 20% FBS (ThermoFisher), 10 mM β-glycerophosphate, 50 μg/ml ascorbic acid 2-phosphate, 50 μg/ml sodium ascorbate, 100 nM dexamethasone (osteogenic differentiation media) for up to three weeks. […] Media was replaced every 2-3 days. […]

[2] = system: MCRIi001-A-2 organoids; assay: Osteogenic differentiation conditions in a second iPSC line; settings: osteogenic conditions with a CHIR99021 pulse v osteogenic medium alone
Protocol: Hypertrophic chondrocytes can transdifferentiate into osteoblasts and osteocytes in vivo (Yang et al., 2014; Zhou et al., 2014). To recapitulate this later stage of endochondral bone formation in vitro, hypertrophic chondrocyte pellets in orbital culture were rinsed in PBS then cultured in DMEM, high glucose, GlutaMAX Supplement, pyruvate (ThermoFisher), 20% FBS (ThermoFisher), 10 mM β-glycerophosphate, 50 μg/ml ascorbic acid 2-phosphate, 50 μg/ml sodium ascorbate, 100 nM dexamethasone (osteogenic differentiation media) for up to three weeks. […] Media was replaced every 2-3 days.
Cultured and in vivo grafted pellet organoids were fixed overnight at 4° C. in Confix (Australian Biostain) neutral-buffered formalin, then […] washed in 70% ethanol, and paraffin-embedded. After fixing, some in vivo grafted pellets were washed in water for 10 minutes then decalcified in 14% EDTA, pH 7.4 at 4° C. for 5 days before embedding. Serial 5 μm sections cut from the pellet centers were mounted on Superfrost Plus slides (Menzel-Gläser) and heated at 55° C. overnight. Sections were treated with xylene to remove the paraffin wax and an ethanol series comprising 100%, 90%, 70%, 50% ethanol then water to rehydrate the sections. Sections were stained with toluidine blue to detect a cartilage proteoglycan matrix or safranin O/fast green for cartilage and bone following standard protocols. […]

[3] = system: iPSC-derived sclerotome pellets (MCRIi018-B); assay: Sclerotome to chondrocyte differentiation in pellet culture (FGF2 v BMP4); settings: for collagen II extracellular matrix (immunostaining) / collagen X extracellular staining: day 48; for collagen X extracellular staining: static pellets
Protocol: Sclerotome to chondrocyte differentiation was in APEL2 medium containing 5% Protein Free Hybridoma Medium (PFHM II; Thermo Fisher) and 20 ng/ml FGF2. In some experiments BMP4 (R & D Systems) was included at 20 ng/ml. Pellets were routinely transferred to 6 cm non-adherent dishes (Greiner) at the end of either day 6 or day 20; 15-20 pellets per dish in 5 ml of medium with orbital rotation at 60 rpm. The medium was changed every 2-3 days. From day 20 (after 2 weeks of FGF2 treatment), differentiation/maturation continued in APEL2/5% PFHM with medium replaced every 2-3 days for the duration of the chondrogenic differentiation experiments as indicated. In some experiments pellets were treated with FGF2 for 4 weeks post-sclerotome.
(§1) Cultured and in vivo grafted pellet organoids were fixed overnight at 4° C. in Confix (Australian Biostain) neutral-buffered formalin, then […] washed in 70% ethanol, and paraffin-embedded. After fixing, some in vivo grafted pellets were washed in water for 10 minutes then decalcified in 14% EDTA, pH 7.4 at 4° C. for 5 days before embedding. Serial 5 μm sections cut from the pellet centers were mounted on Superfrost Plus slides (Menzel-Gläser) and heated at 55° C. overnight. Sections were treated with xylene to remove the paraffin wax and an ethanol series comprising 100%, 90%, 70%, 50% ethanol then water to rehydrate the sections. Sections were stained with toluidine blue to detect a cartilage proteoglycan matrix or safranin O/fast green for cartilage and bone following standard protocols. Osteogenic pellet sections were also stained with von Kossa to detect mineralization. Images were captured using a Leica DM 2000 LED microscope with Leica Application Suite (LAS) software version 4.9.0 or Zeiss Axio Imager Z2 with Zen 3.1 Blue Edition software.
(§2) Formalin fixed and paraffin-embedded sections were immunostained for collagen II (MAB8887; Sigma-Aldrich; 1:150 dilution), collagen I (LF68; Kerafast ENH018-FP; 1:100), collagen X (Cameron et al., 2015) (1:100), PRG4 (clone 9G3; Merck) (1:100) and Ku80 (Cell Signaling) (1:300). For collagen II staining, antigen retrieval used 2 mg/ml porcine pepsin (Sigma) freshly prepared in 1 M Tris/HCl, pH 2.0 for 30 minutes at 37° C., followed by digestion for 30 minutes at 37° C. with 0.2% hyaluronidase (Sigma-Aldrich) in PBS. Collagen X antigen retrieval involved heating to 60° C. in 10 mM Tris/1 mM EDTA/0.05% Tween-20, pH 9.0 (Tris/EDTA) for 30 min, cooling to room temperature for 30 minutes, followed by hyaluronidase digestion and collagen I and Ku80 staining followed antigen retrieval at 60° C. in Tris/EDTA as above. Sections to be stained with Ku80 were then permeabilized with 0.05% Triton X-100. Sections were blocked with 3% BSA in PBS for 1 hour at room temperature, then incubated with primary antibodies in 1% BSA in PBS for 16 hours at 4° C. Appropriate species specific Alexa Fluor 488 and 594 secondary antibodies (ThermoFisher) were diluted 1:200 in 1% BSA in PBS with 2.5 μg/ml DAPI, and sections incubated for 1 hour at room temperature. Slides were washed with PBS and coverslips mounted using Shandon Immumount (ThermoFisher). Images were captured as described above. For collagen X intracellular colocalization studies sections were treated with 0.2% hyaluronidase at 37° C. for 30 minutes then permeabilized with 0.05% Triton X-100. The collagen X antibody was used at 1:100, 58K (PA1-9000; ThermoFisher) at 1:50, GRP94 (PA5-18534; ThermoFisher) 1:200 and LAMP2 (ab25631; Abcam) 1:50. Images were captured on a Zeiss LSM900 Airyscan 2 confocal microscope with Zen 3.1 Blue Edition software.
RNA was extracted from monolayer cultures using TRIzol […] following the manufacturer's instructions. Typically 100-200 ng total RNA was used for cDNA synthesis in a total volume of 20 μl using the QuantiTect® Reverse Transcription kit (Qiagen) according to the manufacturer's instructions. […]

[4] = system: iPSC-derived chondroprogenitors (MCRIi019-A); assay: TGFβ3 induction of an articular chondrocyte phenotype; settings: day 48
Protocol: In some experiments, differentiated chondrocytes were treated with 10 ng/ml TGFβ3 (R&D Systems) for up to 34 days to generate articular cartilage. From day 6, differentiation/maturation continued in APEL2/5% PFHM (with FGF2) for 7 days. From day 13, 10 ng/ml TGFβ3 was added (i.e. FGF2 and TGFβ3) with medium replaced every 2-3 days. At day 20, the pellets were transferred to rotary culture and cultured with 10 ng/ml TGFβ3 (R&D Systems) (and without FGF2) for a further 4 weeks.
as §1, §2
For RNAseq, organoids (2-3 pooled) were snap frozen in liquid nitrogen, pulverized using a liquid nitrogen-cooled tissue grinder and RNA extracted with TRIzol, followed by purification using Direct-zol RNA Microprep kit spin columns (Zymo Research) according to the manufacturer's instructions. RNA samples were quality controlled and sequenced at the Translational Genomics Unit, Murdoch Children's Research Institute. Libraries were constructed using Illumina Stranded mRNA Prep kits and sequenced using a NextSeq 500 to obtain ˜20×10^6 75 bp paired-end reads per sample or a NovaSeq 6000 for 150 bp paired-end reads. […]

[5] = osteogenic conditions with CHIR, RNAseq
[6] = osteogenic conditions with a CHIR pulse, RNAseq
[7] = 20 ng/ml for 14 days post-sclerotome, qRT-PCR
[8] = 20 ng/ml for 14 days post-sclerotome, static culture, day 34

## Cc1cnc(-c2cnc(NCCNc3ccc(C#N)cn3)nc2-c2ccc(Cl)cc2Cl)[nH]1 [CHIR99021, 6-[[2-[[4-(2,4-Dichlorophenyl)-5-(5-methyl-1H-imidazol-2-yl)-2-pyrimidinyl]amino]ethyl]amino]-3-pyridinecarbonitrile]
[1]; RNAseq
  COL1A1 mRNA expression v osteogenic medium alone: much higher
  bone markers COL3A1, COL5A1 and OMD mRNA v osteogenic medium alone: more highly expressed
  other cartilage markers (SOX9, COMP, IHH, MATN3, CEBPB, COL11A1, COL11A2, COL9A1, COL9A2, COL9A3) mRNA v osteogenic medium alone: downregulated more
[1]; [5]
  COL1A1 upregulation v hypertrophic chondrocytes: 324 fold
  COL1A2 upregulation v hypertrophic chondrocytes: 210 fold
  DMP1 upregulation v hypertrophic chondrocytes: 935 fold
  IBSP upregulation v hypertrophic chondrocytes: 7 fold
  IFITM5 upregulation v hypertrophic chondrocytes: 105 fold
[1]; [6]
  CCDC3 upregulation v hypertrophic chondrocytes: 121 fold
  FAP upregulation v hypertrophic chondrocytes: 64 fold
  POSTN upregulation v hypertrophic chondrocytes: 54 fold
  SFRP4 upregulation v hypertrophic chondrocytes: 4 fold
  TNC upregulation v hypertrophic chondrocytes: 72 fold
[1]; osteogenic medium with 7-day pulse then 2 weeks osteogenic medium alone
  toluidine blue staining: marked reduction in toluidine blue staining
[1]; three weeks
  μCT calcium phosphate mineral: little μCT attenuation
[1]; three weeks, compared between the two osteogenic conditions
  von Kossa staining (matrix mineralization): positive von Kossa staining
[2]
  aggrecan degradation (toluidine blue): more extensive

## FGF2: FGF pathway activator growth factor (PeproTech) used at 20 ng/ml post-sclerotome
[3]; [7]
  COL2A1 and ACAN gene expression: consistently higher than in BMP4 cultures
[3]; [8]
  toluidine blue staining of pellets: strong toluidine blue staining throughout
[3]
  collagen II extracellular matrix (immunostaining): extensive and uniform collagen II extracellular matrix
  collagen X extracellular staining: strong
[3]; rotary culture from day 6
  toluidine blue staining of pellets: stained throughout with toluidine blue

## TGFβ3: TGF-beta agonist growth factor (R&D Systems) used at 10 ng/ml
[4]; 10 ng/ml from day 13
  PRG4 immunostaining: High uniform PRG4 immunostaining
  chondrocyte morphology: smaller chondrocytes
  collagen II expression (immunostaining): also expressing collagen II
  collagen X (immunostaining): no extracellular collagen X
[4]; RNAseq
  ACAN and HAPLN mRNA: down-regulation
  COL10A1, IBSP, SPP1 and MATN3 mRNA: among the most downregulated
  COMP mRNA v untreated chondronoids: not differentially expressed
  ERG transcription factor mRNA: highly expressed and upregulated
  MEOX1 and MEOX2 mRNA: highly upregulated
  PRG4, ASPN, CILP and CILP2 mRNA v untreated chondronoids: strongly upregulated
  downregulation of COL2A1, COL9A1, COL9A2, COL9A3, COL11A1 mRNA v untreated chondronoids: ≤ 2 fold
  elastic fiber components ELN, LTBP2, TGFBI and MFAP5 mRNA: among the 20 most highly upregulated genes
  hypertrophy transcription factors MEF2C, RUNX2, SP7 and DLX5 mRNA: Among the most strongly downregulated

B1: BMP4: growth factor (R & D Systems) included at 20 ng/ml in some experiments (protein, UniProt P12644 293-408, looked up)
Bone morphogenetic protein 4: SPKHHSQRARKKNKNCRRHSLYVDFSDVGWNDWIVAPPGYQAFYCHGDCPFPLADHLNSTNHAIVQTLVNSVNSSIPKACCVPTELSAISMLYLDEYDKVVLKNYQEMVVEGCGCR
[3]; [7]
  COL10A1 gene expression: expressed earlier
[3]; [8]
  toluidine blue staining of pellets: only isolated areas were toluidine blue positive
[3]; 20 ng/ml for two weeks post-sclerotome, first experiments, data not shown
  expression of key cartilage genes: key cartilage genes were not highly expressed
[3]
  collagen II extracellular matrix (immunostaining): only small foci that were positive for collagen II
  collagen X extracellular staining: only seen in small, localized regions
[3]; transfer to rotary culture at end of day 6
  maintenance of pellets in rotary culture: fragile and could not be maintained in rotary culture
